# Test results from PubChem BioAssay AID1645848.
# Conditions: buffer; pH 7.4; 6.0 h; 150.0 µM
row,Structure (SMILES),solubility kinetic [µg/mL]
1,Fc1ccc(CN2CCOC[C@H]2c2ncc(-c3ccc(Cl)s3)[nH]2)cc1,5.47
2,COc1cc2c(cc1OC)C(C[C@H]1CN(S(=O)(=O)c3cccc(C#N)c3)CC[C@H]1CC(=O)O)=NCC2,> 76
3,Fc1ccc(-c2csc3ncnc(Sc4nnnn4-c4ccccc4)c23)cc1,0.705
4,O=C(NC1CCCc2c1[nH]c1ccccc21)c1ccccc1 (centres undefined),7.97
5,CC(C)c1ccccc1-c1nc2c(c(NCc3ccc(-c4cccnc4)cc3)n1)CNC2,40.9
6,CCOC(=O)C1CCN(c2ncc(-c3ccc4c(c3)OCCCO4)s2)CC1,< 1
7,Cc1ccc(S(=O)(=O)Nc2ccccc2C(=O)Nc2ncc(-c3ccccc3)o2)cc1,< 1
8,O=C(Nc1nnc(-c2cccs2)o1)c1ccc(Cl)cc1,6.09
9,CCn1cc(C(=O)N2CCN(c3cccc(Cl)c3)CC2)c2cc(OC)c(OC)cc2c1=O,3.32
10,CS(=O)(=O)c1ccc(-c2cnc(NCc3ccco3)n3cnnc23)cc1,> 37
11,NC1(c2ccc(NC(=O)c3ccnc(-c4cc(C(=O)O)ccn4)c3)cc2)CC1,2.79
12,O=C1CCc2ccc(OCCCCN3CCN(c4cccc(Cl)c4Cl)CC3)cc2N1,< 1
13,Cc1cccc(C)c1Nc1c(-c2ccccn2)nc2ccc(Cl)cn12,< 1
14,O=C(Nc1nc(-c2ccccn2)cs1)c1cccc(S(=O)(=O)N2CCOCC2)c1,24.3
15,CCOC(=O)c1[nH]c(C)c(CCC(=O)N2CCN(c3cc(C)ccc3C)CC2)c1C,6.25
16,CCOC(=O)c1[nH]c(C)c(CCC(=O)N2CCN(c3cc(Cl)ccc3C)CC2)c1C,2.74
17,O=C1C2=C(Nc3ccccc3SC2c2ccco2)c2ccccc21 (centres undefined),< 1
18,Cc1ccc(S(=O)(=O)N(C)c2ccccc2C(=O)Nc2nc(-c3ccccc3)cs2)cc1,< 1
19,CCOC(=O)N1CCN(Cc2nc3c(c(=O)n(C)c(=O)n3C)n2Cc2cccc(C)c2)CC1,> 67
20,Cc1cc(F)ccc1S(=O)(=O)Nc1cnccc1C(=O)Nc1nc(-c2ccccc2)cs1,34.6
21,Nc1nc2c(s1)C(c1cccc(F)c1F)CC(=O)N2 (centres undefined),8.33
22,Cc1ccc(S(=O)(=O)Nc2ccccc2C(=O)Nc2nc(-c3ccc(Cl)cc3)cs2)cc1,7.04
23,Fc1ccc(-c2ccc(Nc3nc(-c4ccncc4)nc4ccccc34)cc2F)c(Cl)c1,< 1
24,Cc1cc(-c2nnc3n2CCCCC3)c(C)n1-c1ccc(Cl)c(Cl)c1,31.6
25,CN(C)CC(=O)NC1CCCc2c1cnn2-c1ccc(F)cc1F (centres undefined),> 33

row,Structure (SMILES),solubility kinetic [µg/mL]
1,COc1cc(Nc2nc(-c3ccncc3)nc3ccccc23)ccc1Cl,< 1
2,NC(=O)c1sc2nc3c(c(-c4cccs4)c2c1N)CCCC3,0.293
3,COc1ccc(-n2c(C)c(C(C)=O)c3cc(OC(=O)COc4ccccc4)ccc32)cc1,< 1
4,CC1CCN(C(=O)c2ccc(-c3ccc(N4CCSCC4)nc3)cc2)CC1,2.44
5,CCN1CCN(c2ccc3cc(S(=O)(=O)N4CCOCC4)ccc3n2)CC1,> 58
6,Cc1cc(C)nc(NC(=S)N2CCN(c3ccc(Cl)cc3F)CC2)c1,3.36
7,COc1cc(C(=O)Nc2nc(-c3ccccc3)cs2)ccc1NS(=O)(=O)c1ccc(C)cc1,< 1
8,COc1cc(-c2nc(Cn3nnc(C(=O)Nc4cc(C)cc(C)c4)c3C)c(C)o2)cc(OC)c1OC,< 1
9,O=C(O)c1c(Sc2ccccc2)c2cc(Cl)ccc2n1Cc1ccc(Cl)cc1,> 63
10,Cc1cc(C)nc(NC(=S)N2CCN(c3cccc([N+](=O)[O-])c3)CC2)c1,4.04
11,CC1=C(C(=O)Nc2ccccc2)C(c2ccccc2Br)N=C(Nc2nc3ccccc3o2)N1 (centres undefined),< 1
12,CNc1sc(-c2cccc3ccccc23)nc1C#N,< 1
13,Cc1ccc(S(=O)(=O)Nc2cccc(C(=O)Nc3nc(-c4ccccc4)cs3)c2Cl)cc1,< 1
14,CCOc1ccc(CCNC(=O)c2cc3sccc3n2Cc2ccccc2)cc1OCC,< 1
15,O=C1Nc2ccccc2/C1=C\c1ccc(O)c(Cl)c1,22.8
16,CC1(C)CC2CC(C)(CN2S(=O)(=O)c2ccc(C(=O)Nc3ccc(Cl)cc3)cc2)C1 (centres undefined),< 1
17,Fc1ccc(Nc2nc(C3=CCNCC3)nc3ccccc23)cc1F,> 50
18,CCOc1ccc(NC(=O)CSC2=Nc3ccccc3C3=NC(CC(=O)NCc4cccs4)C(=O)N23)cc1 (centres undefined),23.8
19,COc1ccc(Cn2c(C(=O)O)c(CNCc3ccco3)c3ccc(C)cc32)cc1,> 60
20,COc1cccc(CNc2ccc(S(=O)(=O)Nc3nccs3)cc2)c1N,> 58
21,COC(=O)c1ccnc(-c2cc(C(=O)Nc3ccc(C4(N)CC4)cc3)ccn2)c1,12.8
22,O=[S+]([O-])(Nc1ccc(N2CCNCC2)cc1)c1ccc(NCc2ccc(Cl)cc2O)cc1,25.2
23,Cc1cc(C)c2nc(-c3ccccn3)cc(C(=O)Nc3ccc(S(=O)(=O)Nc4onc(C)c4C)cc3)c2c1,12
24,O=C1NC(=O)C(c2cnc3ccccn23)=C1c1cn2c3c(cccc13)CN(C(=O)N1CCOCC1)CC2,> 73
